According to US20240189388A1, “MEDICATION FOR TREATING LUNG INJURY” (SHANGHAI SEME CELL TECHNOLOGY CO., LTD., priority 2021, published 2024):
Where “and” joins values, the source holds several entries; their conditions need not be identical. Identical values can stand only once.

Columns and labels:
[1] = tested on: rats with a lung injury; experiment: Survival test, LPS lung injury rats (Example 2); assay type: in vivo, Sprague-Dawley rats; conditions: test sample group, 0.75 mg/kg intravenous, 6 rats
Protocol: Animal grouping: 18 qualified male animals were randomly divided into a normal control group, a model control group, and a test sample group according to their body weight measured before grouping, with 6 animals per group.
(§1) D0: The animals in the normal control group were intraperitoneally injected with sodium chloride injection (1 ml/kg), while the animals in other groups were intraperitoneally injected with lipopolysaccharides (1 mg/kg, 1 ml/kg).
(§2) D1: After 16 h (+30 min) of intraperitoneal injection, the animals were anesthetized by inhaling isoflurane. The animals in the normal control group were nebulized with sodium chloride injection (1 mL/kg) in the trachea, while the animals in other groups were nebulized with lipopolysaccharides (5 mg/kg, 1 ml/kg) in the trachea.
D1: About 3 h to 5 h after the intratracheal nebulization of the modeling reagent (LPS), the animals were administrated with the test sample or solvent according to the following table 8: […]
After planned euthanasia, a rate of a quantity of live animals in each group to a total quantity of animals in each group in an experimental period was calculated.
Survival rate (%)=the quantity of live animals in a group/the total quantity of animals in the group×100%.

[2] = tested on: rats with a lung injury; experiment: Blood gas test, LPS lung injury rats (Example 2); assay type: in vivo, Sprague-Dawley rats
Protocol: as §1, §2
(§3) Administration frequency and duration: On D1, the animals were administered for the first time within 3 h after the intratracheal nebulization with the modeling reagent (LPS); and on D2, the animals were administered for the second time. The interval between the two administrations was about 24 h (+20 min).
Test time: the day after the second administration (D3)
Sample collection: The rats were anesthetized by intraperitoneal injection with chloral hydrate (350 mg/kg, 100 mg/mL), and their abdominal midline was longitudinally incised to separate the abdominal aorta. About 0.2 mL of arterial blood was collected with an arterial blood sampler. A syringe in the blood sampler was rubbed in the palm and turned upside down for 5 seconds to ensure that the blood was never returned to the blood sampler for blood mixing treatment.
Testing method: After the arterial blood was collected, a needle was gently inserted into a blood injection port of a test card, and the blood was gently pushed in and filled a sample filling tube. When the blood reached an adding position, the adding of the sample was stopped, a lid was closed, and the blood automatically entered the test tube. The test card was inserted into a blood gas analyzer to wait for test results.
Test indicators: PO2 (mmHg), PCO2 (mmHg), pH, and sO2%.

[3] = tested on: rats with a lung injury; experiment: BALF white blood cell count and classification (Example 2); assay type: in vivo, Sprague-Dawley rats; conditions: D3, 0.75 mg/kg i.v. twice, 6 rats, x ± SD
Protocol: as §1, §2, §3
Sample collection: After the animals were euthanatized, the skin and tissues of the neck and chest were incised to expose the trachea, bronchi, and lungs. The bronchi in the right lung were separated and ligated. A suture was threaded under the trachea, a ½ incision was made between cartilage rings of the trachea at an appropriate position under the thyroid cartilage, a trachea cannula was slowly inserted along the incision into the airway to a left bronchus, and the inserted cannula was fastened with the trachea by using the threaded suture at an appropriate position in a centripetal direction of the incision. 3 ml of PBS buffer was slowly injected with a syringe for bronchoalveolar lavage. The lavage was repeated 3 times, with each remaining for about 10 seconds. The lavage solution was collected into a centrifuge tube of appropriate capacity.
BALF treatment: The collected lavage solution was centrifuged at 4° C. and approximately 2000 rpm for 20 min. The supernatant was stored below −60° C. for later use. The precipitate was re-suspended with I mL of PBS buffer for count and classification of white blood cells. The supernatant after BALF centrifugation was managed as a sample by using a Watson LIMS7.5 system.
Classification and test of white blood cells: White blood cells in the re-suspended BALF were counted and classified by a fully automatic blood cell analyzer.

[4] = tested on: LPS-induced acute respiratory distress syndrome; experiment: Histopathological examination of lung, HE staining, LPS-induced ARDS rat model (Example 1); assay type: in vivo, SD rats; parameters: key to Pulmonary pathological score, Inflammation, Sited 1 / Pulmonary pathological score, Inflammation, Sited 2 / Pulmonary pathological score, Inflammation, Sited 3 / Pulmonary pathological score, Alveolar wall thickness, Sited 1 / Pulmonary pathological score, Alveolar wall thickness, Sited 2 / Pulmonary pathological score, Alveolar wall thickness, Sited 3: 0: NA; 1: Slight; 2: Moderate; 3: Severe; Pulmonary pathological score, Mean of total / Pulmonary pathological score, Inflammation, Mean / Pulmonary pathological score, Alveolar wall thickness, Mean / Pulmonary pathological score, Total: scale not given here
Protocol: Normal adult male SD rats were randomly grouped, 5 rats in each group. The animals were intraperitoneally injected and nebulized in the trachea with lipopolysaccharides (LPS) as a modeling reagent, as shown in Table 1:
The animals in groups G1 and G2 were intraperitoneally injected with lipopolysaccharides (0.8 mg/kg. body weight) according to their body weight, anesthetized by inhaling isoflurane after 16 h of the intraperitoneal injection, and nebulized with lipopolysaccharides (5 mg/kg. body weight) in the trachea.
The animals were administered for the first time within 1 h after the intratracheal nebulization with the modeling reagent (LPS), and the second time after 24 h.
After the bronchoalveolar lavage fluid was collected from all the animals, the chest cavity was opened to take the right lung. The lung was infused with formalin by using an injection needle, fixed in a 10% neutral buffer formalin solution, followed by paraffin embedding, slicing, section preparation, and HE staining for pathological morphological observation of lung tissues. Professional pathologists carried out pathological testing on the lung tissues.

[5] = arterial blood, D3, 0.75 mg/kg i.v. twice, 6 rats, x ± SD
[6] = G2 compared to model control group G1
[7] = mean of 3 sites per animal G2-1 to G2-5, 1 mg/kg
[8] = single animals G2-1 to G2-5, 1 mg/kg, score 0-3

## Annexin A5
[1]
  Survival rate: 100%
[2]; [5]
  PCO2: 46.63 ± 6.17 mmHg
  PO2: 82.5 ± 8.7 mmHg
  pH: 7.372 ± 0.049
  sO2 %: 95.5 ± 1.0 %
[2]; test sample group
  Change in the pH indicator: no significant change
[2]; test sample group vs model control group
  Change of PO2, sO2% and PCO2 after administration: all increased with statistical differences
[3]
  Lymphocytes in BALF: 0.58 ± 0.22 ×10^9 cells/L
  Monocytes in BALF: 0.38 ± 0.47 ×10^9 cells/L
  Neutrophils in BALF: 2.54 ± 2.07 ×10^9 cells/L
  White blood cell in BALF: 3.63 ± 2.05 ×10^9 cells/L
[4]; [6]
  Effect on LPS-induced acute respiratory distress syndrome (pathological analysis): significant improvement
  Lung injury in stained pathological sections (FIG. 4): significantly improved
[4]; group G2, 5 rats, 1 mg/kg
  Pulmonary pathological score, Mean of total: 2.33
[4]; [7]
  Pulmonary pathological score, Alveolar wall thickness, Mean: 0.67 (3×) and 1.00 and 1.33
  Pulmonary pathological score, Inflammation, Mean: 1.67 and 2.00 and 1.33 (2×) and 1.00
[4]; per animal G2-1 to G2-5, 1 mg/kg
  Pulmonary pathological score, Total: 2.33 (2×) and 3.00 and 2.00 (2×)
[4]; [8]
  Pulmonary pathological score, Alveolar wall thickness, Sited 1: 0 (2×) and 1 (2×) and 2
  Pulmonary pathological score, Alveolar wall thickness, Sited 2: 1 (4×) and 2
  Pulmonary pathological score, Alveolar wall thickness, Sited 3: 1 (3×) and 0 (2×)
  Pulmonary pathological score, Inflammation, Sited 1: 2 (2×) and 1 (3×)
  Pulmonary pathological score, Inflammation, Sited 2: 2 and 3 and 1 (3×)
  Pulmonary pathological score, Inflammation, Sited 3: 1 (3×) and 2 (2×)
